According to US4550101A, “Iron complexes of hydroxy pyridones useful for treating iron deficiency anemia” (priority 1982, dated 1985):
Where two headings read alike, the source gives them in different places.

How the values were obtained:
[1] = Partition between n-octanol and aqueous tris hydrochloride (Kpart); type: physicochemical; details: for Partition Coefficient, Kpart, Iron complex [Fe^III-(compound)3]: 100 µM
Protocol: Acid washed glassware is used throughout and, following mixing of 5 ml of the 10^-4 M aqueous solution with 5 ml of n-octanol for 1 minute, the aqueous n-octanol mixture is centrifuged at 1,000 g for 30 seconds. The two resulting phases are separated for a concentration determination by spectrophotometry on each.

[2] = tested on: human erythrocytes; details: pH 7.4
Protocol: (§1) Following this period of incubation, an aliquot of the erythrocyte/medium mixture was placed above a layer of silcone oil and the erythrocytes separated by centrifugation through the oil. The ^59 Fe levels associated with the erythrocytes and the incubation medium were then counted.

[3] = tested on: apotransferrin; assay: Ability of iron complexes to donate iron to apotransferrin; type: biochemical; details: within 10 minutes, 37° C., pH 7.4, 10^-4 M complex, 10^-4 M apotransferrin
Protocol: At 10, 20, 30 and 60 minute intervals 1 ml aliquots were removed from the media and added to a PD10 colum. 0.5 ml fractions were collected directly into scintillation vials for counting. The ^59 Fe associated with both the apotransferrin and the ligand was estimated as a function of time. […] Thus, although both the 3-hydroxypyrid-2-ones and the 3-hydroxypyrid-4-ones are able to denote iron to apotransferrin, the former are the more efficient.

[4] = tested on: rat jejunal sac; assay: Iron uptake into the serosal space of the inverted rat jejunal sac
Protocol: Rats (male Sprague Dawley, 60 g) were killed and the jejunum removed, everted and cut into three segments (4 cm length). The segments were tied at both ends and filled with Krebs Ringer buffer (0.2 ml) and incubated in Krebs Ringer buffer containing ^59 Fe complexes at 37° C. for periods up to 1 hour. The contents of the sac were counted for ^59 Fe and measured spectrophotometrically.

[5] = tested on: cat intestine; details: in vivo
Protocol: (§2) The total ^59 Fe present in the kidneys and urine was then measured in each case.
(§3) As well as the kidneys, various other tissues of the cat which recieved the Fe(III) 1-ethyl-3-hydroxypyrid-2-one were studied to assess the percentage of the original ^59 Fe dose which was present.

[6] = Clearance and tissue distribution of 59Fe after intravenous injection in the cat; type: in vivo
Text: as §3

[7] = tested on: human erythrocytes; assay: Accumulation of iron complexes by human erythrocytes; details: 1 hour, 37° C., pH 7.4, 10^-3 M complex, 5% erythrocyte suspension; mean of at least three determinations
Protocol: as §1

[8] = tested on: cat intestine; assay: In vivo permeability of cat intestine towards iron complexes: 59Fe in blood, kidneys, urine and tissues after administration into the small intestine; details: for Concentration of [59Fe] in blood: 1 mg iron, pyridone complex with 20-fold excess of free pyridone
Protocol: as §2, §3

[9] = n-octanol / 20 mM tris hydrochloride pH 7.4, 20° C., 10^-4 M, read-out: Partition Coefficient, Kpart, Free Compound (converted)
[10] = n-octanol/tris hydrochloride, pH 7.4
[11] = relative to ferric chloride as 1, 37° C., up to 1 hour

CCCCn1ccc(=O)c(O)c1C [1-butyl-3-hydroxy-2-methylpyrid-4-one, 1-Butyl-3-hydroxy-2-methylpyrid-4-one] gave a logD at 100 µM [1, 9] of 0.724.

Work on CCn1ccc(=O)c(O)c1C [1-ethyl-3-hydroxy-2-methylpyrid-4-one, 1-Ethyl-3-hydroxy-2-methylpyrid-4-one] yielded a logD at 100 µM [1, 9] of -0.398.

In the case of CCn1cccc(O)c1=O [1-ethyl-3-hydroxypyrid-2-one], the logD at 100 µM [1, 10] is reported as -0.284.

Work on Cc1c(O)c(=O)ccn1C(C)C [3-Hydroxy-2-methyl-1-(1'-methylethyl)pyrid-4-one] yielded a logD at 100 µM [1, 9] of -0.0223.

Compound Cc1c(O)c(=O)ccn1C [3-hydroxy-1,2-dimethylpyrid-4-one] has a logD at 100 µM [1, 10] of -0.678.

Compound CC(C)n1cccc(O)c1=O [3-hydroxy-1-(1'-methylethyl)-pyrid-2-one, 3-hydroxy-1-(1'-methylethyl)pyrid-2-one] has a logD at 100 µM [1, 10] of 0.491.

For Cn1cccc(O)c1=O [3-hydroxy-1-methylpyrid-2-one], the logD at 100 µM [1, 10] was -0.357.

For CCCn1cccc(O)c1=O [3-hydroxy-1-propylpyrid-2-one], the logD at 100 µM [1, 10] was -0.108.

In the case of CCCCn1ccc(=O)c([O-])c1C.CCCCn1ccc(=O)c([O-])c1C.CCCCn1ccc(=O)c([O-])c1C.[Fe+3] [3:1 iron (III) complex of 1-butyl-3-hydroxy-2-methylpyrid-4-one], the “Partition Coefficient, Kpart, Iron complex [Fe^III-(compound)3]” value (“Partition Coefficient, Kpart” for short) [1, 10] is reported as 7.70 and the “Amount of complex entering erythrocytes” value [2] is reported as 1630 n.mole.

For CCn1ccc(=O)c([O-])c1C.CCn1ccc(=O)c([O-])c1C.CCn1ccc(=O)c([O-])c1C.[Fe+3] [3:1 iron (III) complex of 1-ethyl-3-hydroxy-2-methylpyrid-4-one], the “Partition Coefficient, Kpart” value [1, 10] was 0.03, the “iron removed from the iron complex by apotransferrin” value [3] was 55% and the “Amount of complex entering erythrocytes” value [2] was 20 n.mole.

For Cc1c([O-])c(=O)ccn1C.Cc1c([O-])c(=O)ccn1C.Cc1c([O-])c(=O)ccn1C.[Fe+3] [3:1 iron (III) complex of 3-hydroxy-1,2-dimethylpyrid-4-one], the “Partition Coefficient, Kpart” value [1, 10] was 0.05 and the “Amount of complex entering erythrocytes” value [2] was 25 n.mole.

For Cc1c([O-])c(=O)ccn1C(C)C.Cc1c([O-])c(=O)ccn1C(C)C.Cc1c([O-])c(=O)ccn1C(C)C.[Fe+3] [3:1 iron (III) complex of 3-hydroxy-1-(1'-methylethyl)-2-methylpyrid-4-one], the “Partition Coefficient, Kpart” value [1, 10] was 0.20 and the “Amount of complex entering erythrocytes” value [2] was 22 n.mole.

For CC(C)n1cccc([O-])c1=O.CC(C)n1cccc([O-])c1=O.CC(C)n1cccc([O-])c1=O.[Fe+3] [3:1 iron (III) complex of 3-hydroxy-1-(1'-methylethyl)pyrid-2-one], the “Partition Coefficient, Kpart” value [1, 10] was 13.50 and the “Amount of complex entering erythrocytes” value [2] was 770 n.mole.

In the case of Cn1cccc([O-])c1=O.Cn1cccc([O-])c1=O.Cn1cccc([O-])c1=O.[Fe+3] [3:1 iron (III) complex of 3-hydroxy-1-methylpyrid-2-one], the “Partition Coefficient, Kpart” value [1, 10] is reported as 0.10 and the “Amount of complex entering erythrocytes” value [2] is reported as 60 n.mole.

With CCCn1cccc([O-])c1=O.CCCn1cccc([O-])c1=O.CCCn1cccc([O-])c1=O.[Fe+3] [3:1 iron (III) complex of 3-hydroxy-1-propylpyrid-2-one] the “Partition Coefficient, Kpart” value [1, 10] was 6.20 and the “Amount of complex entering erythrocytes” value [2] was 710 n.mole.

For CCCn1ccc(=O)c([O-])c1C.CCCn1ccc(=O)c([O-])c1C.CCCn1ccc(=O)c([O-])c1C.[Fe+3] [3:1 iron (III) complex of 3-hydroxy-2-methyl-1-propylpyrid-4-one], the “Amount of complex entering erythrocytes” value [2] was 53 n.mole.

For [Cl][Fe]([Cl])[Cl] [FeCl3, ferric chloride], the “Relative Iron Uptake” value [4] was 1.

With O=C([O-])[C@H](O)[C@@H](O)[C@H](O)[C@H](O)CO.O=C([O-])[C@H](O)[C@@H](O)[C@H](O)[C@H](O)CO.[Fe+2] [Fe^II gluconate] the “Relative Iron Uptake” value [4] was 1.6.

With O=C([O-])CN(CCN(CC(=O)[O-])CC(=O)[O-])CC(=O)[O-].[Fe+3] [Fe^III EDTA, iron (III) EDTA] the “percentage of the total dose in the urine” value ([5]; cat, 4 h) was 21% and the “clearance into the urine” value [5] was “cleared rapidly into the urine”.

With O=C1O[C@H]([C@@H](O)CO)C(O)=C1O [Fe^III ascorbate, iron (III) ascorbate, reference compound] the logD at 100 µM [1, 10] was -2.82 and the “Relative Iron Uptake” value [4, 11] was 0.4.

For CCn1cccc([O-])c1=O.CCn1cccc([O-])c1=O.CCn1cccc([O-])c1=O.[Fe+3] [iron complex of 1-ethyl-3-hydroxypyrid-2-one], the “Partition Coefficient, Kpart” value ([1]; n-octanol / 20 mM tris hydrochloride pH 7.4, 20° C., 10^-4 M) was 1.06, the “iron removed from the iron complex by apotransferrin” value [3] was “over 90%” and the “Relative Iron Uptake” value [4, 11] was 37. For the same compound, the “dose appearing in the urine” value [6] was “less than 1%”, the “half life of clearance from the circulation” value [6] was 45 min and the “Percentage of original 59Fe dose, Blood” value ([6]; after 4 hours) was 7%. For the same compound, the “Percentage of original 59Fe dose, Heart” value ([6]; after 4 hours) was 1.1%, the “Percentage of original 59Fe dose, Kidneys” value ([6]; after 4 hours) was 1% and the “Percentage of original 59Fe dose, Liver” value ([6]; after 4 hours) was 5.3%. The “Percentage of original 59Fe dose, Skeletal Muscle” value ([6]; after 4 hours) was 0.5%, the “Percentage of original 59Fe dose, Spleen” value ([6]; after 4 hours) was 0.7% and the “Percentage of original 59Fe dose, Urine” value ([6]; after 4 hours) was 0.5%. For the same compound, the “Percentage of original 59Fe dose, Reticuloendothelial System (Bone Marrow)” value ([6]; after 4 hours, estimated) was roughly 80%, the “Amount of complex entering erythrocytes” value [7] was 250 n.mole and the “Concentration of [59Fe] in blood” value ([8]; 20 minutes after administration into small intestine) was 200 c.p.m. The “Concentration of [59Fe] in blood” value ([8]; 40 minutes after administration into small intestine) was 475 c.p.m, the “Concentration of [59Fe] in blood” value ([8]; 60 minutes after administration into small intestine) was 643 c.p.m and the “Concentration of [59Fe] in blood” value ([8]; 80 minutes after administration into small intestine) was 661 c.p.m. The “Concentration of [59Fe] in blood” value ([8]; 100 minutes after administration into small intestine) was 784 c.p.m, the “Concentration of [59Fe] in blood” value ([8]; 120 minutes after administration into small intestine) was 870 c.p.m and the “Concentration of [59Fe] in blood” value ([8]; 140 minutes after administration into small intestine) was 834 c.p.m. The “Concentration of [59Fe] in blood” value ([8]; 160 minutes after administration into small intestine) was 750 c.p.m, the “Concentration of [59Fe] in blood” value ([8]; 180 minutes after administration into small intestine) was 900 c.p.m and the “clearance into the urine” value ([8]; 4 hours, into small intestine) was “very slow”. For the same compound, the “percentage of the total dose in the kidneys” value ([8]; 4 hours, into small intestine) was 0.05%, the “percentage of the total dose in the urine” value ([8]; 4 hours, into small intestine) was “no more than 0.01%” and the “Concentration of [59Fe] in blood” value ([8]; 240 minutes after administration into small intestine) was 948 c.p.m. The “59Fe in the sternum” value ([8]; confirms reticuloendothelial system (bone marrow)) was “high levels of ^59 Fe in the sternum”, the “distribution of the iron in the body” value ([8]; intrajejunal) was “widely distributed throughout the body” and the “Percentage of original 59Fe dose, Blood” value ([8]; intrajejunal, after 4 hours) was 3%. The “Percentage of original 59Fe dose, Heart” value ([8]; intrajejunal, after 4 hours) was 1.5%, the “Percentage of original 59Fe dose, Intestinal Tissue” value ([8]; intrajejunal, after 4 hours) was 30% and the “Percentage of original 59Fe dose, Kidneys” value ([8]; intrajejunal, after 4 hours) was 0.05%. The “Percentage of original 59Fe dose, Liver” value ([8]; intrajejunal, after 4 hours) was 1.6%, the “Percentage of original 59Fe dose, Skeletal Muscle” value ([8]; intrajejunal, after 4 hours) was 0.8% and the “Percentage of original 59Fe dose, Spleen” value ([8]; intrajejunal, after 4 hours) was 0.1%. For the same compound, the “Percentage of original 59Fe dose, Urine” value ([8]; intrajejunal, after 4 hours) was 0.01% and the “Percentage of original 59Fe dose, Reticuloendothelial System (Bone Marrow)” value ([8]; intrajejunal, after 4 hours, estimated) was roughly 60%.
